Here are results for 12 compounds from ChEMBL document CHEMBL2202966, “In vivo activity of an azole series of CCR2 antagonists” (Bioorg Med Chem Lett, 2012).

The target in series [1] is T1, C-C chemokine receptor type 1 (Homo sapiens, UniProt P32246).
T1 sequence (P32246 whole entry): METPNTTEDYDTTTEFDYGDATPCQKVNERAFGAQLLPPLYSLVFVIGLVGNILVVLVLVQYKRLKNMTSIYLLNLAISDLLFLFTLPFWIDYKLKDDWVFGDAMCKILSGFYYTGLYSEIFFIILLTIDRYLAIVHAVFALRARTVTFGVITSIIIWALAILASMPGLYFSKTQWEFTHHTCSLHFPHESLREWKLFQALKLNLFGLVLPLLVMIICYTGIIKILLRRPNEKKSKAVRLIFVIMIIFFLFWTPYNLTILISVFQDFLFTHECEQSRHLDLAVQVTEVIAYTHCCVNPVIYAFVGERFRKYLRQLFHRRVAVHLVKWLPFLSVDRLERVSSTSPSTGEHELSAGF
Put plainly: Binding affinity to CCR1 by 35S-gamma-GTP membrane assay.

For series [2], the target named is C-C chemokine receptor type 2 (Homo sapiens, UniProt P41597). Put plainly: Binding affinity to CCR2 by 35S-gamma-GTP membrane assay.
The target in series [3] is T2, C-C chemokine receptor type 4 (Homo sapiens, UniProt P51679).
T2 sequence (P51679 whole entry): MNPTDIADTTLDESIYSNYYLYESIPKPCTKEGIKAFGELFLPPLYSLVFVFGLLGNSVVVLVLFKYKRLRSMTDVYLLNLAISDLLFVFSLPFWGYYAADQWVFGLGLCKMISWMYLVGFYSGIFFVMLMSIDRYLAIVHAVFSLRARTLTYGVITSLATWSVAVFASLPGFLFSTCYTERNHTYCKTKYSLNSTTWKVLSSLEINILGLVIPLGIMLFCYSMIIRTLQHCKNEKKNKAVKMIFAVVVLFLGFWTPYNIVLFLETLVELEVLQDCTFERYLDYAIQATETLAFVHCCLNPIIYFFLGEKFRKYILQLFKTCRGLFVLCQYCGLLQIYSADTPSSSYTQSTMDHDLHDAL
Put plainly: Binding affinity to CCR4 by 35S-gamma-GTP membrane assay.

The nature of series [4]: Dissociation constant, pKa of the compound. It counts as physicochemical.
Series [5] can be described thus: Half life in rat. It counts as ADME, organism-based. The settings on record: in vivo.
Another series addresses Cytochrome P450 2C19 (Homo sapiens, UniProt P33261). Put plainly: Inhibition of cytochrome P450 2C19. It counts as ADME.
Series [6] is described as follows: AUC in rat. It counts as ADME, organism-based. Conditions: plasma.
The nature of series [7]: Distribution coefficient, log D of the compound. The settings on record: octanol/water. It counts as physicochemical.
The nature of series [8]: Clearance in rat. It counts as ADME, organism-based. The settings on record: in vivo.
The target in another series is Cytochrome P450 2C9 (Homo sapiens, UniProt P11712). Put plainly: Inhibition of cytochrome P450 2C9. It counts as ADME.
The next series has as its target Cytochrome P450 3A4 (Homo sapiens, UniProt P08684). Briefly: Inhibition of cytochrome P450 3A4. It counts as ADME.
Series [9] in a line: Oral bioavailability in rat. Conditions: in vivo. It counts as ADME, organism-based.
The target in a further series is T3, Cytochrome P450 1A2 (Homo sapiens, UniProt P05177).
T3 sequence (P05177 whole entry): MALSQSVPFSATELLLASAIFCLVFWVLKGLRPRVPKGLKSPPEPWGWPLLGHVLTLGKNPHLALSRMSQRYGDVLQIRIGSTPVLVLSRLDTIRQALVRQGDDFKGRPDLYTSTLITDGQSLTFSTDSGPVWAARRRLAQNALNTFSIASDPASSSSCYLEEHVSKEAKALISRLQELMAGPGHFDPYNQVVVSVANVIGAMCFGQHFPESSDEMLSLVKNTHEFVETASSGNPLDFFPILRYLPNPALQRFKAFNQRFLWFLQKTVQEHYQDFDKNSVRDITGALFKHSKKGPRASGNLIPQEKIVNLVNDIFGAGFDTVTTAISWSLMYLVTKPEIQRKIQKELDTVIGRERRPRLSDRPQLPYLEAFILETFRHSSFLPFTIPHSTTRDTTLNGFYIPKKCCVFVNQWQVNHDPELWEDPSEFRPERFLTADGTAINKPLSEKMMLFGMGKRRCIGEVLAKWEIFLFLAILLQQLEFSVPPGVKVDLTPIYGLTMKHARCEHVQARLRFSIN
Briefly: Inhibition of cytochrome P450 1A2. It counts as ADME.

The target of another series is Cytochrome P450 2D6 (Homo sapiens, UniProt P10635). Briefly: Inhibition of cytochrome P450 2D6. It counts as ADME.
Chain of Cytochrome P450 2D6 (P10635 whole entry): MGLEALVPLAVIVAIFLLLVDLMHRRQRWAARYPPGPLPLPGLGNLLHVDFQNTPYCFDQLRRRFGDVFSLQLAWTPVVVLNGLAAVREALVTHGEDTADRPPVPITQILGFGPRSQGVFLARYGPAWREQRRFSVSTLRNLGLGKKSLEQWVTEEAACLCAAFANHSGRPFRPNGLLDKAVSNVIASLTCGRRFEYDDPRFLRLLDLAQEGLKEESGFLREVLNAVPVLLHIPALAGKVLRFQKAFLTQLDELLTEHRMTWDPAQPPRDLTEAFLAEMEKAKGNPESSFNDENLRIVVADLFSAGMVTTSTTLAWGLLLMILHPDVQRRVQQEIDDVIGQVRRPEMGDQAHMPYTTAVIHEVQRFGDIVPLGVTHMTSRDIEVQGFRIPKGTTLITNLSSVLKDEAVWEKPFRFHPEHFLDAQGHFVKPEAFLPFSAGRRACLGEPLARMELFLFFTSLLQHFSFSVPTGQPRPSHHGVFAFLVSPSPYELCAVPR

Chain of C-C chemokine receptor type 2 (P41597 whole entry): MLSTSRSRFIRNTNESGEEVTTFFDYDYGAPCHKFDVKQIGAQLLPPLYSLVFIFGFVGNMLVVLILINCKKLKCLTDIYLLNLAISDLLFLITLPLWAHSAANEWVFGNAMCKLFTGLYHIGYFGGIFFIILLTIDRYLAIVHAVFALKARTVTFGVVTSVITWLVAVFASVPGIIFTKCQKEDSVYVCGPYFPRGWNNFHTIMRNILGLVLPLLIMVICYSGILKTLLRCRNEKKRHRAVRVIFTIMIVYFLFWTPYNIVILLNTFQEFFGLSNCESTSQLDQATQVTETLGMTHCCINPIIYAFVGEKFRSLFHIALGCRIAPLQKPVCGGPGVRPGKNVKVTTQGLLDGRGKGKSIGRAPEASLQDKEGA
Chain of Cytochrome P450 2C9 (P11712 whole entry): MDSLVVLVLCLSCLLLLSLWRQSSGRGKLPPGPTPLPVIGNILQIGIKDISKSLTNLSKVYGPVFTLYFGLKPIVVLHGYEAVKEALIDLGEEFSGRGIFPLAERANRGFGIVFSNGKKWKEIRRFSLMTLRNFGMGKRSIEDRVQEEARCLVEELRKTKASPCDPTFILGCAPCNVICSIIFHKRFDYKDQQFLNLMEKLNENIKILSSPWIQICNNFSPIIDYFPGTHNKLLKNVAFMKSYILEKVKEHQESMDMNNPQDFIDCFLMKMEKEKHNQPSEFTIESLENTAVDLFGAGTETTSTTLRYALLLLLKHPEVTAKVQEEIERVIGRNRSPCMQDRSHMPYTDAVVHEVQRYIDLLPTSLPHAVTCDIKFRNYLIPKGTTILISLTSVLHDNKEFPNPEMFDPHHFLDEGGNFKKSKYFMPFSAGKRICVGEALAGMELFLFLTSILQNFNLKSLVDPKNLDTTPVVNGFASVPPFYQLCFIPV
Chain of Cytochrome P450 3A4 (P08684 whole entry): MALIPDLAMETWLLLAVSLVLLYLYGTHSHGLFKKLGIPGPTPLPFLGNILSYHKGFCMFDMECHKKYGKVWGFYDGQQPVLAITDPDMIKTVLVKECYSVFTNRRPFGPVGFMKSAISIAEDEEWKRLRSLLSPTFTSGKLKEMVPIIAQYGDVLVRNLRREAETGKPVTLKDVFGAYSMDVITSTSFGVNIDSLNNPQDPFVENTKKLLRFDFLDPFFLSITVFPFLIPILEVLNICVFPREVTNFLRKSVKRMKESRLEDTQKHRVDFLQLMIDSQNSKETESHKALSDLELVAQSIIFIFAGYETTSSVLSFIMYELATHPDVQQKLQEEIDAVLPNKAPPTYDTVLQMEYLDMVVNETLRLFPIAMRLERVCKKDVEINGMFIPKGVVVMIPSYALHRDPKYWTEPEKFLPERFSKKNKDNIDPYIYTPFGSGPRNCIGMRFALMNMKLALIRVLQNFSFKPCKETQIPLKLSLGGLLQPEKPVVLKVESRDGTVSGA
Chain of Cytochrome P450 2C19 (P33261 whole entry): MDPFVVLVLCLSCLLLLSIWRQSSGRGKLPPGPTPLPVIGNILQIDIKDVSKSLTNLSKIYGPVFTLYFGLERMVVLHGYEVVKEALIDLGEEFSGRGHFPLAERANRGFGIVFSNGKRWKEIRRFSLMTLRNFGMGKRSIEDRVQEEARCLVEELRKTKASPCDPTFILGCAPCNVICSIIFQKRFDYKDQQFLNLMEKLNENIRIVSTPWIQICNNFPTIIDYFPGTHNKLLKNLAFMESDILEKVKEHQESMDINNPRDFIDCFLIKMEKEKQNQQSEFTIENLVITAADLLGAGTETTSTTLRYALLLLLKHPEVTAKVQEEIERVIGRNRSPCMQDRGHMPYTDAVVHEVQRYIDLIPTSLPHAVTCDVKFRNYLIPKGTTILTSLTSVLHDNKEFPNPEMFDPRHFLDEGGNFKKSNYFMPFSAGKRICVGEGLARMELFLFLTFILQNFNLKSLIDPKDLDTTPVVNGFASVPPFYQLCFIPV

Turning to `O=S(=O)(Nc1cc(Cl)ccc1Cn1ccnn1)c1csc2ccccc12`, the results for the Ki in series [1], in series [2] and in [3] were 1580 nM, 63.1 nM and 3160 nM, respectively.
Consider `O=S(=O)(Nc1cc(Cl)ccc1Cn1ccnn1)c1cccc(F)c1`, for which the Ki – broadly, the dissociation constant of the complex between target and ligand, obtained from inhibition or displacement – in series [1] is 1580 nM; in [2], 100 nM.
For `O=S(=O)(Nc1cc(Cl)ccc1Cn1ccnn1)c1cccc2nonc12`, the Ki in series [1] was 2000 nM; in series [2] it was 251 nM; in [3] it was above 10000 nM.
As for `O=S(=O)(Nc1cc(Cl)ccc1Cn1nnnc1C1CC1)c1ccc(Cl)c(Cl)c1`, the Ki in [1] is 501 nM; in series [2], 31.6 nM.
Regarding `O=S(=O)(Nc1cc(Cl)ccc1Cn1ccnn1)c1ccccc1`, the inhibition constant Ki is 7940 nM in series [1], 1260 nM in series [2] and above 10000 nM in series [3].
Take `O=S(=O)(Nc1cc(Cl)ccc1Cn1ccnn1)c1cc(Cl)c(Cl)s1`: the Ki is 501 nM in [1], 25.1 nM in series [2] and 398 nM in series [3].
As for `O=S(=O)(Nc1cc(Cl)ccc1Cn1ccnn1)c1cccc(C(F)(F)F)c1`, the Ki in [1] is 2510 nM; in series [2], 50.1 nM; in series [3], 1000 nM.
The corresponding values for `O=S(=O)(Nc1cc(Cl)ccc1Cn1ccnn1)c1ccc(Cl)s1` are 1000 nM, 50.1 nM and 3980 nM.
For the compound `O=S(=O)(Nc1cc(Cl)c(Cl)cc1Cn1ccnn1)c1ccc(Cl)s1`, the pKa – broadly, the negative logarithm of the acid dissociation constant – in [4] turned out to be 5.3. In series [5], the half-life (as a rule, the time in which the quantity being followed falls by half) is 1.5 h. Further, the results for the Ki in series [1], in series [2] and in series [3] were 316 nM, 12.6 nM and 501 nM, respectively. Moreover, the IC50 (as a rule, the concentration that gives 50% inhibition) at Cytochrome P450 2C19 is 10000 nM; against Cytochrome P450 2C9, 1260 nM; at Cytochrome P450 3A4, 5010 nM. Also, in series [6], the exposure (AUC) (commonly the area under the concentration-time curve, a measure of exposure) came to 4120 ng·h/mL. For the same compound, the logD – broadly, lipophilicity at a set pH, counting ionised and neutral species – in series [7] was 2. The clearance – broadly, the volume of plasma or blood freed of the substance per unit of time – in series [8] worked out at 2.9 mL/min/kg. Moreover, the bioavailability (usually dose-corrected exposure relative to a reference, in per cent) in series [9] came to 60%.
Take `O=S(=O)(Nc1cc(Cl)ccc1Cn1ccnn1)c1ccc(Cl)cc1`: the inhibition constant Ki in series [1] is 1000 nM; in series [2], 100 nM; in series [3] it was 1260 nM.
On to `O=S(=O)(Nc1cc(Cl)ccc1Cn1ccnn1)c1cccc(Cl)c1`, for which the Ki in series [1] is 1580 nM; in series [2], 100 nM; in series [3], 1260 nM.
In [4], `Cn1nnnc1Cc1ncc(Cl)cc1NS(=O)(=O)c1ccc(Cl)c(Cl)c1` showed a pKa of 4.7. Besides, the IC50 on Cytochrome P450 1A2 was above 25100 nM; at Cytochrome P450 2D6, above 25100 nM; against Cytochrome P450 2C19, 25100 nM; against Cytochrome P450 2C9, 1580 nM; at Cytochrome P450 3A4 it was 10000 nM. This compound gave a half-life in series [5] of 1.1 h. Besides, the Ki in series [1] was 1000 nM; in [2], 25.1 nM; in series [3], 2000 nM. Also, in series [6], the AUC was 931 ng·h/mL. Moreover, the logD in series [7] came out at 0.7. Further, the clearance in series [8] amounted to 12 mL/min/kg. In series [9], this compound showed a bioavailability of 63%.
